Test results reported in patent US4959359A, “Phenyl-thiazepinones as calcium regulating agents” (Hoffmann-La Roche Inc., priority 1989, dated 1990).
Counter-ions that a name gives are not always drawn.

Test system: isolated rat aortic strips
Experiment: Contraction of rat aortic strips: inhibition of Ca++-induced contracture (calcium channel blocking activity)
Assay type: cell-based
Conditions: for inhibition at 0.3 µM: Rattus norvegicus, read-out: % Inhibition (contractile response at 2 mM Ca++ as compared to the control), heading: % Inhibition, 3×10^-7 M, 15 minutes prior to and during the calcium curve, depolarizing K+ 45 mM, diltiazem n = 10, A-D n = 1
Experimental: The calcium channel blocking activity of compounds of formula I was determined by measuring the effect of compounds of formula I on isolated rat aortic strips.
Aortas were excised from rats, placed in Krebs-Henseleit solution, modified so as to be calcium free, with a depolarized level of potassium (45 mM), and 0.02 mM EDTA. The aorta was then helically cut into a strip about 2 mm wide. This strip was then divided into four equal segments about 15 mm in length, which were hung in isolated tissue chambers, attached to the appropriate tranducers and subjected to 500 mg basal tension. After a period of stabilization under these conditions, calcium was introduced into the bath and the tissues contracted in a concentration dependent manner.
When no calcium is available in the bathing media, and the potential dependent calcium channels are opened by the high potassium level, contractility is dependent on the level of calcium introduced into the bath. By adding increments of calcium into the bath, a reproducible concentration-dependent contracture can be obtained. Treatment with a calcium channel blocker, such as diltiazem, or a compound of the invention results in an inhibition of this contractile response.
Each number in the table below was derived by first adding calcium alone to tissue and measuring contracture, and then adding calcium to tissue that had been exposed to 3×10^-7 M of the compound to be tested and measuring contracture. The number for untreated controls was derived by measuring contracture for two runs where calcium alone was added.
A compound tested was placed in the bath at 3×10^-7 M for 15 minutes prior to, and during the acquisition of the concentration-dependent curve to calcium for that particular compound. The inhibition in contractile response at 2 mMCa++ was measured as a per cent inhibition as compared to the control. The effects on the 2 mM Ca++ contracture are as follows:
That is, compound A inhibited almost three quarters of the contracture observed for the control at 2 mM Ca++. As used above, compounds A, B, C, and D are as follows: […]

SMILES | responsiveness to 2 mM Ca++ (15 minute exposure at 3×10^-7 M) | inhibition at 0.3 µM
COc1ccc([C@@H]2Sc3ccccc3N(CCN(C)C)C(=O)[C@@H]2OC(C)=O)cc1 [Diltiazem, reference compound] | marked reduction in responsiveness | 71.1%
COc1ccc([C@H]2SC(c3ccccc3)=C(C)N(CCN(C)C)C(=O)[C@H]2OC(C)=O)cc1 (racemic) [Compound A, cis-rac.-6-(acetyloxy)-6,7-dihydro-7-(4-methoxyphenyl)-3-methyl-4-[2-(dimethylamino)ethyl]-2-phenyl-1,4-thiazepin-5(4H)-one (E)-2-butenedioate] |  | 73.4%
COc1ccc([C@@H]2SC(c3ccccc3)=C(C)N(CCN(C)C)C(=O)[C@@H]2OC(C)=O)cc1 [Compound B, (+)-cis-6-(acetyloxy)-6,7-dihydro-7-(4-methoxyphenyl)-3-methyl-4-[2-dimethylamino)ethyl]-2-phenyl-1,4-thiazepin-5(4H)-one [S-(R*,R*)]-2,3-dihydroxybutanedioic acid hydrate] |  | 88.3%
COc1ccc([C@H]2SC(c3ccccc3)=C(C)N(CCN(C)C)C(=O)[C@H]2OC(C)=O)cc1 [C, (-)-cis-6-(acetyloxy)-6,7-dihydro-7-(4-methoxyphenyl)-3-methyl-4-[2-dimethylamino)ethyl]-2-phenyl-1,4-thiazepin-5(4H)-one [R-(R*,R*)]-2,3-dihydroxybutanedioic acid sesquihydrate] |  | 3.8%
COc1ccc([C@@H]2SC(c3ccccc3)=C(C)N(CCN(C)C)C(=O)[C@H]2OC(C)=O)cc1 (relative stereo) [D, trans-rac.-6-(acetyloxy)6,7-dihydro-7-(4-methoxyphenyl)-3-methyl-4-[2-dimethylamino)ethyl]-2-phenyl-1,4-thiazepin-5(4H)-one hydrochloride] |  | 13.4%
